Laboratory results: patent US9358228B2, “Therapeutic combinations of netupitant and palonosetron” (Helsinn Healthcare SA, priority 2011, dated 2016)

Experiments:
Assay type in all cases: in vivo, rat
[1] = test system: spinal dorsal horn neurones in SNL rats; test: Electrophysiology: mechanical, heat and brush evoked dorsal horn neural responses; details: mean ± S.E.
Protocol: Electrophysiology experiments were conducted on post-operative days 14-17 in anaesthetised rats.
We recorded the evoked responses of dorsal horn lamina V-VI neurones to stimulation of the peripheral receptive field with: • a train of 16 electrical pulses at 3×C-fibre threshold • mechanical von Frey filaments of increasing force—vf 2 g, 8 g, 26 g and 60 g applied to the centre of the receptive field for 10 seconds • heat—40, 45 and 48° C. applied to the centre of the receptive field by a constant water jet for 10 seconds
Following 3 stable baseline responses, 0.03 mg/kg Palonosetron and 0.10 mg/kg Netupitant were administered into the scruff of the neck by subcutaneous injection. Drug effects were followed for two hours with tests carried out at 10, 30, 50, 70, 90 and 110 minutes post injection.

[2] = test system: acetic acid (AA)-induced colonic hypersensitivity in a rodent model; test: Colonic sensitivity assessment: visceromotor response to colorectal distension after acetic acid infusion; details: rats; for inhibition of AA-induced colonic hypersensitivity, agent alone: oral, effective dose not given (0.001-1 mg/kg dosed); for effect of 0.001 mg/kg dose alone on colonic and somatic sensitivity: 0.001 mg/kg p.o., agent alone
Protocol: Induction of Acute Visceral and Somatic Hypersensitivity: Visceral and somatic hypersensitivity were induced by infusing dilute (1.5 ml at 0.6%) acetic acid (AA) into the rat colon via a catheter (Intramedic PE 90 tubing) inserted via the anus to the level of the mid-colon. Within 60 mins colonic and somatic hypersensitivity was evident.
Colonic Sensitivity Assessment: Visceromotor responses (VMR) to colorectal distension (CRD) were measured by counting the number of abdominal contractions in response to increasing levels of CRD (0-60 mmHg). On the day of the colonic sensitivity assessment, a minor surgical procedure was performed to attach a strain gauge force transducer onto the abdominal oblique muscle and attached via an adapter cable to a Grass Model 7 Polygraph. The cable was connected to a Model 7P1 Low-Level DC Pre-Amp. The Pre-Amp was set at 0.02 mV/cm sensitivity and was connected to a Model 7DA DC Driver Amp with sensitivity set at […]. A 5 cm latex balloon was inserted into the distal colon. The balloon cannula was connected to a Distender Series IIR barostat (G & J Electronics Inc.) for controlled, isobaric inflation of the balloon and CRD using constant pressure (isobaric) tonic distensions were conducted at 0, 20, 40 and 60 mmHg. Each pressure was maintained for a period 10 min. during which time the number of abdominal muscle contractions were counted. A 10 min. recovery period was allowed between the each distension.
Test Compounds: Following surgery, rats were pre-dosed with Palonosetron (1-hr pre-dose), Netupitant (2-hr pre-dose) or methyl cellulose vehicle. Palonosetron and Netupitant were supplied by Helsinn Healthcare Inc. and were stored at 4° C. until prepared for dosing as a suspension in 1% methyl cellulose solution. The drug suspensions were prepared so that each rat received an oral dosing volume of 0.5 ml per 100 g body weight for doses of 0.001, 0.01, 0.1 or 1 mg/kg. Compounds were prepared fresh on the day of use.
Statistical Analysis: To determine statistical significance between multiple control and treatment groups, data was compared using one-way ANOVA followed by a Bonferroni post-test. Results were deemed significant when p-values were less than 0.05.

[3] = test system: SNL and Sham rats; test: Rotarod motor performance; details: FIG. 3, 0.03, 0.3 and 3 mg/kg
Text: The rotarod was also used to assess potential effects on motor performance of Netupitant and Palonosetron. Acceleration of the rotarod was set to increase from 0 to 20 revolutions per minute over the period of one minute. Due to initial, non-linear acceleration, rats were placed on the rotarod locked at a speed of 8 revolutions per minute. The rotarod was then set to accelerate and the latency to fall from the rotarod was timed from this point.

Compound | Brush-Evoked, Number of Action Potentials ([1]; Netu 0.1 mg/kg s.c.) | Heat-Evoked 40° Celsius, Number of Action Potentials ([1]; Netu 0.1 mg/kg s.c.) | Heat-Evoked 45° Celsius, Number of Action Potentials ([1]; Netu 0.1 mg/kg s.c.) | Heat-Evoked 48° Celsius, Number of Action Potentials ([1]; Netu 0.1 mg/kg s.c.) | Mechanically-Evoked 8 g vF Filament, Number of Action Potentials ([1]; Netu 0.1 mg/kg s.c.) | Mechanically-Evoked 26 g vF Filament, Number of Action Potentials ([1]; Netu 0.1 mg/kg s.c.) | Mechanically-Evoked 60 g vF Filament, Number of Action Potentials ([1]; Netu 0.1 mg/kg s.c.) | inhibition of AA-induced colonic hypersensitivity, agent alone [2] | effect of 0.001 mg/kg dose alone on colonic and somatic sensitivity [2] | motor performance, total time spent on a rotarod [3] | Brush-Evoked, Number of Action Potentials ([1]; Palo 0.03 mg/kg s.c.) | Heat-Evoked 40° Celsius, Number of Action Potentials ([1]; Palo 0.03 mg/kg s.c.) | Heat-Evoked 45° Celsius, Number of Action Potentials ([1]; Palo 0.03 mg/kg s.c.) | Heat-Evoked 48° Celsius, Number of Action Potentials ([1]; Palo 0.03 mg/kg s.c.) | Mechanically-Evoked 8 g vF Filament, Number of Action Potentials ([1]; Palo 0.03 mg/kg s.c.) | Mechanically-Evoked 26 g vF Filament, Number of Action Potentials ([1]; Palo 0.03 mg/kg s.c.) | Mechanically-Evoked 60 g vF Filament, Number of Action Potentials ([1]; Palo 0.03 mg/kg s.c.)
Cc1ccccc1-c1cc(N2CCN(C)CC2)ncc1N(C)C(=O)C(C)(C)c1cc(C(F)(F)F)cc(C(F)(F)F)c1 [Netu, 2-[3,5-bis(trifluoromethyl)phenyl]-N,2-dimethyl-N-[4-(2-methylphenyl)-6-(4-methylpiperazin-1-yl)pyridin-3-yl]propanamide] | 310 ± 40 | 298 ± 72 | 381 ± 82 | 495 ± 186 | 190 ± 42 | 390 ± 56 | 486 ± 75 | significantly inhibited | non-effective |  |  |  |  |  |  |  | 
Cl.O=C1c2cccc3c2[C@H](CCC3)CN1[C@@H]1CN2CCC1CC2 [Palo, (3aS)-2-[(S)-1-Azabicyclo[2.2.2]oct-3-yl]-2,3,3a,4,5,6-hexahydro-1-oxo-1Hberiz[de]isoquinoline] |  |  |  |  |  |  |  | significantly inhibited | non-effective | did not impair motor performance | 144 ± 59 | 136 ± 58 | 380 ± 187 | 816 ± 101 | 211 ± 42 | 539 ± 17 | 799 ± 192
